This assay has as its target human plasma kallikrein (Homo sapiens, UniProt P03952). Briefly: Kallikrein inhibition FLINT assay with quenched AMC peptide substrate Z-Gly-Pro-Arg-AMC (end point EP or kinetic KIN reads). The note with it: kinetic reads at 5 min intervals over 30 min; read-out: Kallikrein (KIN) IC50. The format is biochemical. The procedure, abridged: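 Enzyme and compound were preincubated 30 min before adding 50 μM AMC substrate in pH 7.5 Tris/NaCl/CaCl2/BSA/CHAPS buffer. AMC release was read at 30 min endpoint or every 5 min.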

Each structure is given as a SMILES string. Where only a bound is given, the exact number is not on record here.

human plasma kallikrein, sequence (P03952 391-638 limits assumed): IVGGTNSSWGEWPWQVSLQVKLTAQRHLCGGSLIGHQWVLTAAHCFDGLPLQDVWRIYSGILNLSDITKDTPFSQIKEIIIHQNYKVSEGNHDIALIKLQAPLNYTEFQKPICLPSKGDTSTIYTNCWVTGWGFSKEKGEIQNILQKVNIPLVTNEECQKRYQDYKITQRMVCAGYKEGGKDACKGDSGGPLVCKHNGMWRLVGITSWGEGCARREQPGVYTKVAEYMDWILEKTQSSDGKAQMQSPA
human plasma kallikrein, sequence (P03952 20-390 partner limits assumed): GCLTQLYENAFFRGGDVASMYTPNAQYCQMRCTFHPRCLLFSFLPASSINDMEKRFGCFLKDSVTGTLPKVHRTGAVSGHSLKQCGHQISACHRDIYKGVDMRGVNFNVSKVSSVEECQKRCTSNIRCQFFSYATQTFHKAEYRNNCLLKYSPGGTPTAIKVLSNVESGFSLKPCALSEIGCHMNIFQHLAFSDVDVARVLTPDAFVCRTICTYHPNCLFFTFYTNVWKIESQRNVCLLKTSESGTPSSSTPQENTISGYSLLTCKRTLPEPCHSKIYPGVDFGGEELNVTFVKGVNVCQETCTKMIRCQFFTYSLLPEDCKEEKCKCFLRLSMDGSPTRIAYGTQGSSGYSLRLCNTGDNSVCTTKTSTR

By IC50 is commonly meant the concentration at which inhibition is half-maximal. For `Cn1ncnc1-c1cnn([C@H](Cc2ccn(C(F)F)n2)c2ccc(-c3c(-n4cc(C(F)(F)F)nn4)ccc(Cl)c3F)c[n+]2[O-])c1` [Example P816], the IC50 was 86.3 nM.
Next, `[O-][n+]1cc(-c2c(-n3cnnn3)ccc(Cl)c2F)ccc1C(Cn1ccc(-c2ccccc2)n1)n1cc(-c2ccncc2)cn1` (centres unmarked) [Example P270]: 268 nM.
Regarding `NC(=O)c1ccc(-c2cnn(C(CC(=O)N3CCCC3)c3ccc(-c4c(-n5cc(C(F)(F)F)nn5)ccc(Cl)c4F)c[n+]3[O-])c2)cc1F` (centres unmarked) [Example P902], the IC50 was 87.1 nM.
Regarding `N#Cc1cc(-c2cnn(C(Cn3ccccc3=O)c3ccc(-c4c(-n5cnnn5)ccc(Cl)c4F)c[n+]3[O-])c2)ccn1` (centres unmarked) [Example P459], the 50% inhibitory concentration (IC50) was found to be 105 nM.
Take `NC(=O)c1ccc(-c2cnn(C(CCOC(F)F)c3ccc(-c4c(-n5cc(Cl)nn5)ccc(Cl)c4F)c[n+]3[O-])c2)cc1` (single isomer, unassigned) [Example P895]: the IC50 turned out to be 702 nM.
Consider `COc1cc(C(Cc2ccn(C(F)F)n2)n2cc(-c3ccc(C(=O)O)c(F)c3)cn2)[n+]([O-])cc1-c1c(C(F)F)ccc(Cl)c1F` (centres unmarked) [Example Q74], for which the IC50 is 11 nM.
With `[O-][n+]1cc(-c2c(-n3cnnn3)ccc(Cl)c2F)ccc1C(CC1CC1)n1cc(-c2scnc2C(F)(F)F)cn1` (centres unmarked) [Example P540], the IC50 stood at 471 nM.
As for `O=C(O)c1ccc(-c2cnn(C(CC3CC3C(=O)N3CCCC3)c3ccc(-c4cc(Cl)ccc4-n4cnnn4)c[n+]3[O-])c2)cc1` (centres unmarked) [Example P106], the IC50 was found to be 635 nM.
Next, `[O-][n+]1cc(-c2c(-n3cnnn3)ccc(Cl)c2F)ccc1C(CC1CCCO1)n1cc(-c2ccncc2)cn1` (centres unmarked) [Example P186]: 320 nM; `CCn1ncc(-c2cnn(C(CC3CC3)c3cc(OC)c(-c4c(-n5cnnn5)ccc(Cl)c4F)c[n+]3[O-])c2)cc1=O` (centres unmarked) [Example P170]: 46.8 nM.
Turning to `CC1CC1CC(c1ccc(-c2c(-n3cnnn3)ccc(Cl)c2F)c[n+]1[O-])n1cc(-c2ncnn2C(F)F)cn1` (centres unmarked) [Example P765], the IC50 was above 100 nM.
Take `COC(=O)Nc1ccc(-c2cnn(C(CC3CCCCO3)c3ccc(-c4c(-n5cnnn5)ccc(Cl)c4F)c[n+]3[O-])c2)cc1` (single isomer, unassigned) [Example P127]: the IC50 was determined as 70.1 nM.
Under `COC(=O)Nc1ccc(-c2cnn(C(Cc3ccc(Cl)cc3)c3ccc(-c4cc(Cl)ccc4-n4cnnn4)c[n+]3[O-])c2)cc1` (centres unmarked) [Example P92] stands 45.5 nM.
Take `Cn1ncc(-c2cnn(C(Cc3ccc(F)cc3)c3ccc(-c4c(-n5cnnn5)ccc(Cl)c4F)c[n+]3[O-])c2)cc1=O` (centres unmarked) [Example P116]: the IC50 turned out to be 26.2 nM.
Regarding `[2H]C([2H])([2H])n1nccc1-c1cnn([C@H](CCOC(F)F)c2ccc(-c3c(-n4cnnn4)ccc(Cl)c3F)c[n+]2[O-])c1` [Example P556], the IC50 stood at 2.4 nM.
For `[O-][n+]1cccc(-c2cnn(C(Cc3ccc(Cl)cc3)c3ccc(-c4cc(Cl)ccc4-n4cnnn4)c[n+]3[O-])c2)c1` (centres unmarked) [Example P151], the IC50 was determined as 80.1 nM.
As to `COc1cc(C(CC2CC2)n2cc(-c3ncnn3C(F)F)cn2)[n+]([O-])cc1-c1c(C#N)ccc(Cl)c1F` (centres unmarked) [Example Q56], the IC50 stood at 58.9 nM.
As for `[O-][n+]1cc(-c2c(-n3cnnn3)ccc(Cl)c2F)ccc1C(CC1CC1)n1cc(-c2c[nH]nc2Cl)cn1` (centres unmarked) [Example P938], the IC50 is 6.9 nM.
Consider `[O-][n+]1cc(-c2c(-n3cnnn3)ccc(Cl)c2F)ccc1C(Cc1ccn(C(F)F)n1)n1cc(-c2ccnc(C(F)(F)F)c2)cn1` (centres unmarked) [Example P703], for which the IC50 was found to be 9.7 nM.
`O=C(O)c1ccc(-c2cnn(C(Cc3ccn(C(F)F)n3)c3ccc(-c4c(C(F)F)ccc(Cl)c4F)c[n+]3[O-])c2)cc1` (single isomer, unassigned) [Example Q71]: the IC50 is 4.9 nM.
As for `O=C(O)c1ccc(-c2cnn(C(CC3CC3c3ccc(-c4ccccc4)cc3)c3ccc(-c4cc(Cl)ccc4-n4cnnn4)c[n+]3[O-])c2)cc1` (centres unmarked) [Example P61], the 50% inhibitory concentration (IC50) was 51.9 nM.
As to `COCc1ccn(CC(c2ccc(-c3c(-n4cnnn4)ccc(Cl)c3F)c[n+]2[O-])n2cc(-c3ccnc(C(F)(F)F)c3)cn2)n1` (single isomer, unassigned) [Example P440], the IC50 was determined as 70.2 nM.
`COC(=O)Nc1ccc(-c2cnn(C(Cc3ccc(Cl)cc3)c3ccc(-c4c(-n5cnnn5)ccc(Cl)c4F)c[n+]3[O-])c2)cc1` (single isomer, unassigned) [Example P160]: the 50% inhibitory concentration (IC50) was found to be 7 nM.
For the compound `[O-][n+]1cc(-c2c(-n3cnnn3)ccc(Cl)c2F)ccc1C(CC1CC1)n1cc(-c2ccn[nH]2)cn1` (centres unmarked) [Example P467], the half-maximal inhibitory concentration (IC50) turned out to be 780 nM.
`NC(=O)C1CC1CC(c1ccc(-c2c(-n3cnnn3)ccc(Cl)c2F)c[n+]1[O-])n1cc(-c2cc[n+]([O-])cc2)cn1` (single isomer, unassigned) [Example P282]: the half-maximal inhibitory concentration (IC50) stood at 775 nM.
Under `O=C(O)c1ccn(CC(c2ccc(-c3c(-n4cnnn4)ccc(Cl)c3F)c[n+]2[O-])n2cc(-c3ccncc3)cn2)n1` (centres unmarked) [Example P442] stands around 138 nM.
Regarding `O=C1CCC(c2ccc(-c3cnn(C(Cc4ccc(F)cc4)c4ccc(-c5c(-n6cnnn6)ccc(Cl)c5F)c[n+]4[O-])c3)cc2)N1` (centres unmarked) [Example P121], the IC50 amounted to 11.3 nM.
For `CN(C)C(=O)CC(c1ccc(-c2c(-n3cc(C(F)(F)F)nn3)ccc(Cl)c2F)c[n+]1[O-])n1cc(-c2ccc(C(N)=O)c(F)c2)cn1` (centres unmarked) [Example P884], the IC50 was found to be 61.3 nM.
On to `COCc1ccn(CC(c2ccc(-c3c(-n4cnnn4)ccc(Cl)c3F)c[n+]2[O-])n2cc(-c3ccnc(C(F)(F)F)c3)cn2)n1` (single isomer, unassigned) [Example P441], for which the IC50 stood at 3.2 nM.
With `[O-][n+]1cc(-c2c(-n3cnnn3)ccc(Cl)c2F)ccc1[C@H](Cn1ccc(OC(F)F)n1)n1cc(-c2ccnc(C(F)(F)F)c2)cn1` [Example P534], the half-maximal inhibitory concentration (IC50) worked out at 93.1 nM.
Under `[2H]C([2H])(C[C@H](c1ccc(-c2c(-n3cc(C(F)(F)F)nn3)ccc(Cl)c2F)c[n+]1[O-])n1cc(-c2ncnn2C)cn1)OC(F)F` [Example P820] stands 68.8 nM.
Regarding `[O-][n+]1cc(-c2c(-n3cnnn3)ccc(Cl)c2F)ccc1[C@H](Cn1cc(F)cn1)n1cc(-c2cncs2)cn1` [Example P493], the IC50 stood at 179 nM.
Under `COC(=O)N(C)CC(c1ccc(-c2c(-n3cnnn3)ccc(Cl)c2F)c[n+]1[O-])n1cc(-c2ccnc(C(F)(F)F)c2)cn1` (single isomer, unassigned) [Example P381] stands 36.6 nM; under `COC(=O)N(C)CC(c1ccc(-c2c(-n3cnnn3)ccc(Cl)c2F)c[n+]1[O-])n1cc(-c2ccncc2)cn1` (centres unmarked) [Example P303], 32.7 nM.
For `COC(=O)Nc1ccc(-c2cnn(C(CC3CC3C(=O)N3CCCC(c4ccccc4)C3)c3ccc(-c4c(-n5cnnn5)ccc(Cl)c4F)c[n+]3[O-])c2)cc1` (centres unmarked) [Example P221], the IC50 was determined as 377 nM.
Consider `COC(=O)Nc1ccc(-c2cnn(C(Cc3ccn(C)n3)c3ccc(-c4c(-n5cnnn5)ccc(Cl)c4F)c[n+]3[O-])c2)cc1` (racemic) [Example P327], for which the IC50 amounted to 29.1 nM.
Turning to `[O-][n+]1cc(-c2c(-n3cnnn3)ccc(Cl)c2F)ccc1C(CC1CC1)n1cc(-c2scnc2C2CC2)cn1` (centres unmarked) [Example P535], the IC50 is 220 nM.
As for `O=C(O)c1ccc(-c2cnn(C(Cc3ccn(C(F)F)n3)c3ccc(-c4c(C(F)F)ccc(Cl)c4F)c[n+]3[O-])c2)cc1F` (single isomer, unassigned) [Example Q64], the IC50 turned out to be 4.7 nM.

These data come from patent US11814364B2, “Pyridine N-oxide derivatives useful as factor XIa inhibitors” (Janssen Pharmaceutica NV, priority 2021, dated 2023).
